Test results reported in US9382295B2, “Cyclic depsipeptide compounds and their uses” (Cypralis Limited, priority 2012, dated 2016).
Values after ≈ are worked out from the molar mass of the structure shown. Like-named read-outs stand apart in the source and are kept apart here. Numbered stars: 1 amine (or outer) side, 2 acyl side, 3 side chain; on linkers, the order of the positions; unused ones are H or OH. Square brackets hold non-standard residues; d marks the D form. Peptide text beside a SMILES is read from it. X10 = Cc1cccc(/C=C/C[C@@H](C)[C@@H](O)[C@H](C(=O)[*:2])N(C)[*:1])n1; X30 = C[C@H](CCN(C)Cc1nnn[nH]1)[C@@H](O)[C@H](C(=O)[*:2])N(C)[*:1]; X17 = C[C@H](CCN(C)CCc1ccccn1)[C@@H](O)[C@H](C(=O)[*:2])N(C)[*:1]; X7 = C[C@H](CCN(C)Cc1ccnn1C)[C@@H](O)[C@H](C(=O)[*:2])N(C)[*:1]; X34 = C[C@H](CCN1CCN(C)CC1)[C@@H](O)[C@H](C(=O)[*:2])N(C)[*:1]; X18 = C[C@H](CCNCc1ccccc1)[C@@H](O)[C@H](C(=O)[*:2])N(C)[*:1]; X25 = CC(C)NCC[C@@H](C)[C@@H](O)[C@H](C(=O)[*:2])N(C)[*:1]; d(aThr) = C[C@@H](O)[C@@H](N)C(=O)O; NMeL = CN[C@@H](CC(C)C)C(=O)O; dNMeL = CN[C@H](CC(C)C)C(=O)O; dNMeV = CN[C@@H](C(=O)O)C(C)C; Hiv = CC(C)[C@H](O)C(=O)O; dAbu = CC[C@@H](N)C(=O)O; Sar = CNCC(=O)O

Tests used:
[1] = Water solubility assay (pH 7.8 buffer); type: physicochemical
Protocol: ***Water Solubility Assay (Measured in pH 7.8 Buffer)
The onset of precipitation, if it occurred, was detected by an increase in absorbance at 650 nm.
Assay Buffer: 35 mM HEPES pH 7.8
Stock solutions of Control and Test Compounds: 10 mM in 100% DMSO
10 mM stock solutions of control and test compounds were prepared in 100% DMSO. A series of dilutions were prepared from the stock in DMSO so that the final concentrations in the assay were 0, 3.33, 10, 25, 50, 75 and 100 μM and DMSO was limited to 1%.
Assay buffer (247.5 μl) was placed into flat bottomed transparent 96-well plate. For blank samples DMSO (2.5 μl) was added. For test and control samples 2.5 μl of the appropriate DMSO dilution stocks were added to the appropriate well. All test and control compounds were performed in triplicate.
The plates were sealed with adhesive plate seal and shaken at 250 rpm at 25° C. for 18 h on a plate shaker.
After incubation the plate seals were taken off and any bubbles observed in wells removed. The plates were read on a SpectraMaxM5 with a 5 s pre-shake at 650 nm.
Data files were transferred to the appropriate worksheet and the solubility range of the compounds was calculated from the data.
The values shown in the tables indicate the concentration in μM (micromolar) at which the compound remains in solution.

cyclophilin D (Cyp D) = cyclophilin D (Cyp D) (Homo sapiens, UniProt P30405); assay: Protease-free PPIase assay, cyclophilin D; type: biochemical
Protocol: (§1) The protease-free PPIase assay measures the rate of cis to trans conversion of a peptide substrate catalyzed by the enzymes cyclophilin A and cyclophilin D. Addition of a cyclophilin inhibitor (e.g., a test compound) slows the catalyzed rate and a Ki value is obtained. […] 35 mM HEPES pH 7.8, filtered through a 0.2 μm filter. 50 μM DTT was added prior to use each day and then the buffer was stored on ice. Succinimide-[…]) (from Bachem AG, L-1400), 20 mg/ml prepared in 0.5 M LiCl in trifluoroethanol. All readings were taken with an Agilent 8453 Spectrophotometer which consists of a cuvette holder, stirrer and chiller to maintain a stirred cuvette temperature of 10.0±0.1° C. The temperature is monitored by the use of temperature probe. […] The inhibitor was diluted in 100% DMSO, and then added to the assay to a maximum final concentration of 0.5% DMSO in the assay. A blank spectrum was obtained, then 3 μL of enzyme was added (2 nM final concentration) and then 3 μL substrate (60 μM final concentration) added. The absorbance was measured at 330 nm for 300 s or 500 s for blank runs (NOTE: the substrate must be added in one quick injection and the measurements started immediately to minimize mixing errors). A first order rate equation was fitted to the absorbance data, for each concentration of inhibitor, to obtain the rate constant (the first 10 to 15 seconds were excluded as mixing causes errors in this portion of curve). The catalytic rate was calculated from the enzymatic rate constant minus the background rate constant. An exponential curve was generated using the catalytic rate constants versus the inhibitor concentration to obtain the Ki value for the inhibitor. The Ki value is indicative of the binding affinity between the test compound and cyclophilin A or cyclophilin D.

cyclophilin A (Cyp A) = target: T1, cyclophilin A (Cyp A) (Homo sapiens, UniProt P62937); assay: Protease-free PPIase assay, cyclophilin A; type: biochemical
T1 construct: purchased Sigma C3805
Protocol: as §1, with “ice. Human recombinant cyclophilin A (Cyp A) (Sigma C3805) enzyme was diluted to 1 μM with enzyme dilution buffer (20 mM HEPES pH 7.8, 40% glycerol, 50 μM DTT and 1 μM BSA) and stored at -20° C.” for “ice.”

[2] = 35 mM HEPES buffer, 35 mM HEPES pH 7.8, 1% DMSO, 25° C., 18 h, concentration at which compound remains in solution, read-out: Solubility
[3] = protease-free PPIase assay, class symbols, read-out: CypD Ki
[4] = protease-free PPIase assay, class symbols, read-out: CypA Ki

T1 sequence (P62937 whole entry): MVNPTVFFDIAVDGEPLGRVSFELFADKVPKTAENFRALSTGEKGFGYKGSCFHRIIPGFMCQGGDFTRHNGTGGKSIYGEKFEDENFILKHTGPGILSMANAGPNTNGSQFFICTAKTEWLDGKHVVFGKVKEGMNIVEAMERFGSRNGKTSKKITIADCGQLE
cyclophilin D (Cyp D), sequence (P30405 30-207): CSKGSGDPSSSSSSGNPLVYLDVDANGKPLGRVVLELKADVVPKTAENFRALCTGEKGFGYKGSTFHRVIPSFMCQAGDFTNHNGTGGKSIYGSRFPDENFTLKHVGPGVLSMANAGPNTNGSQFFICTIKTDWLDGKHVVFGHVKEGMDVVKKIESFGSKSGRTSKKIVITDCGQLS

| SMILES | solubility at 18 h [1, 2] [µM] | Ki (cyclophilin D (Cyp D); [3]) [nM] | Ki (cyclophilin A (Cyp A); [4]) [nM] | solubility at 18 h ([1]; pH 7.8) [µM] | Ki (cyclophilin D (Cyp D)) [nM] | Ki (cyclophilin A (Cyp A)) [nM] |
| --- | --- | --- | --- | --- | --- | --- |
| CC(C)C[C@@H]1C(=O)N[C@H](CC(C)C)C(=O)N(C)[C@H](C(C)C)C(=O)N(C)[C@H]([C@H](O)[C@H](C)CCN(C)Cc2ccnn2C)C(=O)N[C@H]([C@@H](C)O)C(=O)N(C)CC(=O)N(C)[C@@H](CC(C)C)C(=O)N[C@H](CC(C)C)C(=O)N(C)[C@H](CC(C)C)C(=O)N[C@H](C)C(=O)O[C@@H](C(C)C)C(=O)N1C [Example 5, cyclo-{(3R,4R,5S)-4-(hydroxy)-3-methyl-5-(methylamino)-1-N-[methyl-(2-methyl-2H-pyrazol-3-ylmethyl)-amino]-hexanoic acid-Thr-Sar-MeLeu-Leu-MeLeu-Ala-D-Hiv-MeLeu-Leu-MeVal}] (cyclo([Hiv][dNMeL][dL][dNMeV][X7][d(aThr)][Sar][NMeL][dL][dNMeL][dA])) | 50 to 75 (≈ 67.2 to 101 µg/mL) | 1 to 25 | 1 to 25 | – | – | – |
| CC(C)C[C@@H]1C(=O)N[C@H](CC(C)C)C(=O)N(C)[C@H](C(C)C)C(=O)N(C)[C@H]([C@H](O)[C@H](C)CCN(C)CCc2ccccn2)C(=O)N[C@H]([C@@H](C)O)C(=O)N(C)CC(=O)N(C)[C@@H](CC(C)C)C(=O)N[C@H](CC(C)C)C(=O)N(C)[C@H](CC(C)C)C(=O)N[C@H](C)C(=O)O[C@@H](C(C)C)C(=O)N1C [Example 4, cyclo-{(3R,4R,5S)-4-(hydroxy)-3-methyl-5-(methylamino)-1-N-[methyl-2-(pyridin-2-yl)-ethyl-amino]-hexanoic acid-Thr-Sar-MeLeu-Leu-MeLeu-Ala-D-Hiv-MeLeu-Leu-MeVal}] (cyclo([Hiv][dNMeL][dL][dNMeV][X17][d(aThr)][Sar][NMeL][dL][dNMeL][dA])) | 25 to 50 (≈ 33.9 to 67.8 µg/mL) | 1 to 25 | 1 to 25 | – | – | – |
| CC[C@H]1NC(=O)[C@@H]([C@H](O)[C@H](C)C/C=C/c2cccc(C)n2)N(C)C(=O)[C@@H](C(C)C)N(C)C(=O)[C@@H](CC(C)C)NC(=O)[C@@H](CC(C)C)N(C)C(=O)[C@H](C(C)C)OC(=O)[C@@H](C)NC(=O)[C@@H](CC(C)C)N(C)C(=O)[C@@H](CC(C)C)NC(=O)[C@H](CC(C)C)N(C)C(=O)CN(C)C1=O [Example 19, cyclo-[(3R,4R,5S)-4-(hydroxy)-3-methyl-5-(methylamino)-1-(6-methyl-pyridin-2-yl)-hept-1-enoic acid-Abu-Sar-MeLeu-Leu-MeLeu-Ala-D-Hiv-MeLeu-Leu-MeVal]] (cyclo([Hiv][dNMeL][dL][dNMeV][X10][dAbu][Sar][NMeL][dL][dNMeL][dA])) | – | – | – | 10 to 25 (≈ 13.1 to 32.7 µg/mL) | 1 to 25 | 1 to 25 |
| CC(C)C[C@@H]1C(=O)N[C@H](CC(C)C)C(=O)N(C)[C@H](C(C)C)C(=O)N(C)[C@H]([C@H](O)[C@H](C)CCN(C)Cc2nnn[nH]2)C(=O)N[C@H]([C@@H](C)O)C(=O)N(C)CC(=O)N(C)[C@@H](CC(C)C)C(=O)N[C@H](CC(C)C)C(=O)N(C)[C@H](CC(C)C)C(=O)N[C@H](C)C(=O)O[C@@H](C(C)C)C(=O)N1C [Example 6, cyclo-{(3R,4R,5S)-4-(hydroxy)-3-methyl-5-(methylamino)-1-N-[methyl-(1H-tetrazol-5-ylmethyl)-amino]-hexanoic acid-Thr-Sar-MeLeu-Leu-MeLeu-Ala-D-Hiv-MeLeu-Leu-MeVal}] (cyclo([Hiv][dNMeL][dL][dNMeV][X30][d(aThr)][Sar][NMeL][dL][dNMeL][dA])) | – | – | – | 25 to 50 (≈ 33.3 to 66.6 µg/mL) | 1 to 25 | 1 to 25 |
| CC(C)C[C@@H]1C(=O)N[C@H](CC(C)C)C(=O)N(C)[C@H](C(C)C)C(=O)N(C)[C@H]([C@H](O)[C@H](C)CCNC(C)C)C(=O)N[C@H]([C@@H](C)O)C(=O)N(C)CC(=O)N(C)[C@@H](CC(C)C)C(=O)N[C@H](CC(C)C)C(=O)N(C)[C@H](CC(C)C)C(=O)N[C@H](C)C(=O)O[C@@H](C(C)C)C(=O)N1C [Example 37, cyclo-[(3R,4R,5S)-4-hydroxy-1-isopropylamino-3-methyl-5-methylamino-hexanoic acid-Thr-Sar-MeLeu-Leu-MeLeu-Ala-D-Hiv-MeLeu-Leu-MeVal]] (cyclo([Hiv][dNMeL][dL][dNMeV][X25][d(aThr)][Sar][NMeL][dL][dNMeL][dA])) | – | – | – | > 100 | 1 to 25 | 25 to 100 |
| CC(C)C[C@@H]1C(=O)N[C@H](CC(C)C)C(=O)N(C)[C@H](C(C)C)C(=O)N(C)[C@H]([C@H](O)[C@H](C)CCNCc2ccccc2)C(=O)N[C@H]([C@@H](C)O)C(=O)N(C)CC(=O)N(C)[C@@H](CC(C)C)C(=O)N[C@H](CC(C)C)C(=O)N(C)[C@H](CC(C)C)C(=O)N[C@H](C)C(=O)O[C@@H](C(C)C)C(=O)N1C [Example 35, cyclo-[(3R,4R,5S)-1-benzylamino-3-methyl-5-methylamino-4-hydroxy-hexanoic acid-Thr-Sar-MeLeu-Leu-MeLeu-Ala-D-Hiv-MeLeu-Leu-MeVal]] (cyclo([Hiv][dNMeL][dL][dNMeV][X18][d(aThr)][Sar][NMeL][dL][dNMeL][dA])) | – | – | – | 25 to 50 (≈ 33.2 to 66.3 µg/mL) | 1 to 25 | 25 to 100 |
| Cc1cccc(/C=C/C[C@@H](C)[C@@H](O)[C@@H]2C(=O)N[C@H]([C@@H](C)O)C(=O)N(C)CC(=O)N(C)[C@@H](CC(C)C)C(=O)N[C@H](CC(C)C)C(=O)N(C)[C@H](CC(C)C)C(=O)N[C@H](C)C(=O)O[C@@H](C(C)C)C(=O)N(C)[C@H](CC(C)C)C(=O)N[C@H](CC(C)C)C(=O)N(C)[C@H](C(C)C)C(=O)N2C)n1 [Example 14, cyclo-[(3R,4R,5S)-4-(hydroxy)-3-methyl-5-(methylamino)-1-(6-methyl-pyridin-2-yl)-hept-1-enoic acid-Thr-Sar-MeLeu-Leu-MeLeu-Ala-D-Hiv-MeLeu-Leu-MeVal]] (cyclo([Hiv][dNMeL][dL][dNMeV][X10][d(aThr)][Sar][NMeL][dL][dNMeL][dA])) | – | – | – | 10 to 25 (≈ 13.2 to 33.1 µg/mL) | 1 to 25 | 1 to 25 |
| CC(C)C[C@@H]1C(=O)N[C@H](CC(C)C)C(=O)N(C)[C@H](C(C)C)C(=O)N(C)[C@H]([C@H](O)[C@H](C)CCN2CCN(C)CC2)C(=O)N[C@H]([C@@H](C)O)C(=O)N(C)CC(=O)N(C)[C@@H](CC(C)C)C(=O)N[C@H](CC(C)C)C(=O)N(C)[C@H](CC(C)C)C(=O)N[C@H](C)C(=O)O[C@@H](C(C)C)C(=O)N1C [Example 32, cyclo-[(3R,4R,5S)-4-(hydroxy)-3-methyl-5-(methylamino)-1-N—(N′-methylpiperazine)-hexanoic acid-Thr-Sar-MeLeu-Leu-MeLeu-Ala-D-Hiv-MeLeu-Leu-MeVal]] (cyclo([Hiv][dNMeL][dL][dNMeV][X34][d(aThr)][Sar][NMeL][dL][dNMeL][dA])) | – | – | – | – | 25 to 100 | 100 to 300 |
